From article PMC6219988 (Biochemistry, 2018)

Tested on: PTP1B
Assay: PTP1B-catalyzed hydrolysis of pNPP in the presence of inhibitors
Assay type: biochemical
Conditions: IC50 at 20 mM pNPP

- potency (IC50) relative to AA (ratio vs AA): 3 fold
- potency (IC50) relative to DeAA (ratio vs DeAA): 7 fold
Structure (SMILES): CC(C)C1C=C2CCC3C(C)(C(=O)O)CCCC3(C)C2CC1 (single isomer, unassigned; diaa) [DiAA, dihydroabietic acid]
